Reference: ChEMBL document CHEMBL3991601, “The target landscape of clinical kinase drugs” (Science, 2017)
The source made the active and inactive calls.

How the values were obtained:
[1] = target: Tyrosine-protein kinase Lck (Homo sapiens, UniProt P06239)
[2] = target: G protein-coupled receptor kinase 6 (Homo sapiens, UniProt P43250)
[3] = target: Protein kinase C theta type (Homo sapiens, UniProt Q04759)
[4] = target: T1, Dual specificity mitogen-activated protein kinase kinase 5 (Homo sapiens, UniProt Q13163)
T1 sequence (Q13163 whole entry): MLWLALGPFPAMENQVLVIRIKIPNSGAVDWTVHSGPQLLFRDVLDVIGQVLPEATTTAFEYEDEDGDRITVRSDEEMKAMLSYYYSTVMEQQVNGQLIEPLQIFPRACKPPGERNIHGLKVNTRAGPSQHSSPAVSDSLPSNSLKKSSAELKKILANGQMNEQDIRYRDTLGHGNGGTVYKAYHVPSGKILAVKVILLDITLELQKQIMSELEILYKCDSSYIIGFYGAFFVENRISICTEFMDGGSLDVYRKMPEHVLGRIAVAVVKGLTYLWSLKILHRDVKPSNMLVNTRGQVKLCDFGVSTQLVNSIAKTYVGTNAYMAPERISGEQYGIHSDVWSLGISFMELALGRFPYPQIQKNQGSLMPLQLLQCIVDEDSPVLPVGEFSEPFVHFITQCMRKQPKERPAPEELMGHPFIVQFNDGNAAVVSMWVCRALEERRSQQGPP

[5] = target: MAP kinase-activated protein kinase 3 (Homo sapiens, UniProt Q16644)
Sequence of MAP kinase-activated protein kinase 3 (Q16644 whole entry): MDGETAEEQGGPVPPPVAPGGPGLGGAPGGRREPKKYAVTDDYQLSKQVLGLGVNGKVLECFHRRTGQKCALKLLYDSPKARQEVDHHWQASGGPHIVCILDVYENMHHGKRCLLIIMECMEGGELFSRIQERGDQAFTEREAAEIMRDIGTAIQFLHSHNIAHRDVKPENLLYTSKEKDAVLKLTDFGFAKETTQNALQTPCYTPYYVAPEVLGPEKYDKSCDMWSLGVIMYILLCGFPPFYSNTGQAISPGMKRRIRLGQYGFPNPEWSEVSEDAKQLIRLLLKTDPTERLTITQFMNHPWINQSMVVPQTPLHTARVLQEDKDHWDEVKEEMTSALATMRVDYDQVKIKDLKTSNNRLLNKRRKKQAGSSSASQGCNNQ

[6] = target: T2, Peroxisomal acyl-coenzyme A oxidase 1 (Homo sapiens, UniProt Q15067)
T2 sequence (Q15067 whole entry): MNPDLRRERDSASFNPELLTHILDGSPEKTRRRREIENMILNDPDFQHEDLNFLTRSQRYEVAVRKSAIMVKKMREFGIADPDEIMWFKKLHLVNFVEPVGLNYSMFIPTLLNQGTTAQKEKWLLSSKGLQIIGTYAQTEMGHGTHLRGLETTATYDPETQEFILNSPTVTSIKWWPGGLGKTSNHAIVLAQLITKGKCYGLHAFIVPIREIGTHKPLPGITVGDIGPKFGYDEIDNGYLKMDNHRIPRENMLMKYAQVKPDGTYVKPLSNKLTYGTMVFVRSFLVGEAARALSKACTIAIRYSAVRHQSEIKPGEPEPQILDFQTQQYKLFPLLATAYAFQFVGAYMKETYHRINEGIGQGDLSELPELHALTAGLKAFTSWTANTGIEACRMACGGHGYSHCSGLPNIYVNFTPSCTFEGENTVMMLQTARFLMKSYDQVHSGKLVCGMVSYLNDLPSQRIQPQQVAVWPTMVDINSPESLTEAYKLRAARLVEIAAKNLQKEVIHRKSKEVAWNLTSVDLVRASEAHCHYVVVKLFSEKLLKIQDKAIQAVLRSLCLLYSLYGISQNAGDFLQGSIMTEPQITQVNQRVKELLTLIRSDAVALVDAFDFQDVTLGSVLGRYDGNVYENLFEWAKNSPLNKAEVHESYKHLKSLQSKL

[7] = target: T3, Serine/threonine-protein kinase NLK (Homo sapiens, UniProt Q9UBE8)
T3 sequence (Q9UBE8 whole entry): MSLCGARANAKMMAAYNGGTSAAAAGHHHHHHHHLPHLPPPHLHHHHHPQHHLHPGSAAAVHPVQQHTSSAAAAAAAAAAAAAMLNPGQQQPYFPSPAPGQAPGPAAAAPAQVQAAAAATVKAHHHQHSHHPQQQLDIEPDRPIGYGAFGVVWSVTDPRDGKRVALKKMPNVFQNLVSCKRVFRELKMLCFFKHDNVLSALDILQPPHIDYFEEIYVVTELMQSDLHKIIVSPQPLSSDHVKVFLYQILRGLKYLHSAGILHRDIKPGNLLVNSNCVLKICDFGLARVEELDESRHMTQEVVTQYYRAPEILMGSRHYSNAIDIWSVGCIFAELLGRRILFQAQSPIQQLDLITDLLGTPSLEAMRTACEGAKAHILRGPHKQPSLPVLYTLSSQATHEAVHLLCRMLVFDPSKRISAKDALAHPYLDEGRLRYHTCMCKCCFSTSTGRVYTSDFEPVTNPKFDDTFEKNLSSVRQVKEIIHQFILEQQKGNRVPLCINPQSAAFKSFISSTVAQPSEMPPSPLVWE

Myosin-10 = Myosin-10 (Homo sapiens, UniProt P35580)
[8] = target: Dual specificity protein kinase CLK2 (Homo sapiens, UniProt P49760)
Sequence of Dual specificity protein kinase CLK2 (P49760 whole entry): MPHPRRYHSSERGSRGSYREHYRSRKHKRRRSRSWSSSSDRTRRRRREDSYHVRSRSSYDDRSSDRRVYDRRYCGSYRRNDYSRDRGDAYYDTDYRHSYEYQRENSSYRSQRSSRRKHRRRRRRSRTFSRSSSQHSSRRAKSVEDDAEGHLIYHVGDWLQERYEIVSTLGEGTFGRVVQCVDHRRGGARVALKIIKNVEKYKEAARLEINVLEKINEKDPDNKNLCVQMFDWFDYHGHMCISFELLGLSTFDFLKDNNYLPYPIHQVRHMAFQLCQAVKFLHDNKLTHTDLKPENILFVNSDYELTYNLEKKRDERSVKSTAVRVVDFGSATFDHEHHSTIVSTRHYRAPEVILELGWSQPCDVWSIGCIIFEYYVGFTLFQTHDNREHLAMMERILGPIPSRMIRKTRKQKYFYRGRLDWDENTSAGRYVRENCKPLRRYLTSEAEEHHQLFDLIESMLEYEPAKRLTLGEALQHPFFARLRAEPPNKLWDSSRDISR

[9] = target: T4, Calcium/calmodulin-dependent protein kinase type IV (Homo sapiens, UniProt Q16566)
T4 sequence (Q16566 whole entry): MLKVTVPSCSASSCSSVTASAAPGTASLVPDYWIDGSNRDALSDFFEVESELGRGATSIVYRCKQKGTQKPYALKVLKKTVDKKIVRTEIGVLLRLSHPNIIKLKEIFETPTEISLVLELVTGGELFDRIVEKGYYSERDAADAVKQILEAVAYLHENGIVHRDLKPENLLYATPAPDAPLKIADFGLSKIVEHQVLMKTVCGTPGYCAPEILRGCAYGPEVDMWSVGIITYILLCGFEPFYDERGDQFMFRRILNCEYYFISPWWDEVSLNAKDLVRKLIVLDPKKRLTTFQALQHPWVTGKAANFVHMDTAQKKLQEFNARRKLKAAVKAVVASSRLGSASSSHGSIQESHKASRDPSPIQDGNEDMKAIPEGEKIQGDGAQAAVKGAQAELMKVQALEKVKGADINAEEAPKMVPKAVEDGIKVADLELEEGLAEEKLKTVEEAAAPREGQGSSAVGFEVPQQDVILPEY

[10] = target: Uncharacterized aarF domain-containing protein kinase 5 (Homo sapiens, UniProt Q3MIX3)
Sequence of Uncharacterized aarF domain-containing protein kinase 5 (Q3MIX3 whole entry, the tested form may be a part): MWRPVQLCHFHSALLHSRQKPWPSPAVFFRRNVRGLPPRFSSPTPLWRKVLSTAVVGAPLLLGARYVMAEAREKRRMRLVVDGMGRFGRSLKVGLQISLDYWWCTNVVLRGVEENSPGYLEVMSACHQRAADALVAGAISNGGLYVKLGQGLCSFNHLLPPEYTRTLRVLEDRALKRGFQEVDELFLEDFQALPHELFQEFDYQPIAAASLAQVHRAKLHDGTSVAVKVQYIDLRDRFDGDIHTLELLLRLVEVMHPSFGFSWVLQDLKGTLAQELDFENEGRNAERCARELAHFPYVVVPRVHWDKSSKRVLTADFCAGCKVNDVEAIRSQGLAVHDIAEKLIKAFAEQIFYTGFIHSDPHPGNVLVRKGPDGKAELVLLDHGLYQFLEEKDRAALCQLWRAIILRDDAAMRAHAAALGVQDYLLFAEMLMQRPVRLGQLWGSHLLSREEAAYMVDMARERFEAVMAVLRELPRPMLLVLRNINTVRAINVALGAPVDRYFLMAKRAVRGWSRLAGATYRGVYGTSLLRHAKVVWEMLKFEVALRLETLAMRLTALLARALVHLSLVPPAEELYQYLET

[11] = target: Dual specificity protein kinase CLK1 (Homo sapiens, UniProt P49759)
Sequence of Dual specificity protein kinase CLK1 (P49759 whole entry): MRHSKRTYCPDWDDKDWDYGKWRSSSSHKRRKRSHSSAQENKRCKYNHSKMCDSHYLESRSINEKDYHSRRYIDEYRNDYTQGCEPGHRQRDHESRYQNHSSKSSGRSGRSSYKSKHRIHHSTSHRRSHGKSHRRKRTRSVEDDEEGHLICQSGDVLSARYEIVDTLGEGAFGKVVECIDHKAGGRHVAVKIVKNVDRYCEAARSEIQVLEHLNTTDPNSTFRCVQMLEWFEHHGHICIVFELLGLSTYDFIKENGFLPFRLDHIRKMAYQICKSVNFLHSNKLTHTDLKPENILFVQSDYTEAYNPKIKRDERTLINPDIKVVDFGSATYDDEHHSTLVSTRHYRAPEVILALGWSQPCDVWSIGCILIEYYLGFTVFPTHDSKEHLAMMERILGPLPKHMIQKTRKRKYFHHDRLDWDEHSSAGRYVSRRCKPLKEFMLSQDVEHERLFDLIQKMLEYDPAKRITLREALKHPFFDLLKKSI

[12] = target: Dual specificity protein kinase CLK3 (Homo sapiens, UniProt P49761); assay type: subcellular, K-562, COLO 205, SK-N-BE(2) and MV-4-11, Cell lysate; conditions: read-out: Kd apparent
Sequence of Dual specificity protein kinase CLK3 (P49761 whole entry): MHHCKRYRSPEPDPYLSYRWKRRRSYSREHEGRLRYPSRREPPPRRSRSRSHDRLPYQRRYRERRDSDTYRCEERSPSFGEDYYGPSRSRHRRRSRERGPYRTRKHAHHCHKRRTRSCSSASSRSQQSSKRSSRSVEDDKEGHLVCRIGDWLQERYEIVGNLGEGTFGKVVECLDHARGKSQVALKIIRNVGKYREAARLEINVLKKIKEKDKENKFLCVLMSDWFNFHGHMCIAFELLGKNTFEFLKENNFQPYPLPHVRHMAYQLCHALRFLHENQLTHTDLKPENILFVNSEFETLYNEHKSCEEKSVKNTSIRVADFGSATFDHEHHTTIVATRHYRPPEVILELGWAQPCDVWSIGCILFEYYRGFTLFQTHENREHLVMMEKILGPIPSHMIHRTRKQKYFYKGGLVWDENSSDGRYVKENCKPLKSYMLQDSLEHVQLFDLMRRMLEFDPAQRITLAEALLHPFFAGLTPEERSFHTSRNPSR

Focal adhesion kinase 1 = Focal adhesion kinase 1 (Homo sapiens, UniProt Q05397)
Sequence of Focal adhesion kinase 1 (Q05397 whole entry): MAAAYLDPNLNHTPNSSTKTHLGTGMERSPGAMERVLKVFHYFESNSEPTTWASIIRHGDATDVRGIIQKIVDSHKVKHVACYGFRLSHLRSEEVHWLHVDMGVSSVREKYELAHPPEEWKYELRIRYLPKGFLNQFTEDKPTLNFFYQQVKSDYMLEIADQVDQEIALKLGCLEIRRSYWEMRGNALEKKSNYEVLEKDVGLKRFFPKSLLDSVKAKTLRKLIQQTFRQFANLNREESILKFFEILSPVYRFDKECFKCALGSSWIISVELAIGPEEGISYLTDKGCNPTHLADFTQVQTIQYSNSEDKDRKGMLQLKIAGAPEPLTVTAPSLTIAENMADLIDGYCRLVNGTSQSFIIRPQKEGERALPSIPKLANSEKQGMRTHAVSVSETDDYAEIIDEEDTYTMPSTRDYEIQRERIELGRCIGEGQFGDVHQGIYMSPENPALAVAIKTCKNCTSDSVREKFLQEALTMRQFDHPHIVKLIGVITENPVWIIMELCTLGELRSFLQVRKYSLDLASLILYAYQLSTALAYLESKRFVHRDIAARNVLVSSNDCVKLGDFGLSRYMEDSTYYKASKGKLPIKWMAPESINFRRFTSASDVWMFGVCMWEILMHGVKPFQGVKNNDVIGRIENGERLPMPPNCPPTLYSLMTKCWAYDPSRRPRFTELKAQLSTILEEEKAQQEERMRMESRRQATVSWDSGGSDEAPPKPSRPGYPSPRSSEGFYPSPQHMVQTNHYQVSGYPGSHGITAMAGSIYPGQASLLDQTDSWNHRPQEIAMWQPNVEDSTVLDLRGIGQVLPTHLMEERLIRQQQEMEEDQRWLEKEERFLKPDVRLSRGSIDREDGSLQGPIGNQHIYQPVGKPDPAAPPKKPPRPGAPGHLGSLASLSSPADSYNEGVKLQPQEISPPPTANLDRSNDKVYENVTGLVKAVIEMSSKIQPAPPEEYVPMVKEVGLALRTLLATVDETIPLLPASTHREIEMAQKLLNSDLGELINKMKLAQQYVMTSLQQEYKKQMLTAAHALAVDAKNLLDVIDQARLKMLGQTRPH

[13] = target: Dual specificity testis-specific protein kinase 1 (Homo sapiens, UniProt Q15569)
[14] = target: Dual specificity testis-specific protein kinase 2 (Homo sapiens, UniProt Q96S53)
Sequence of Dual specificity testis-specific protein kinase 2 (Q96S53 whole entry): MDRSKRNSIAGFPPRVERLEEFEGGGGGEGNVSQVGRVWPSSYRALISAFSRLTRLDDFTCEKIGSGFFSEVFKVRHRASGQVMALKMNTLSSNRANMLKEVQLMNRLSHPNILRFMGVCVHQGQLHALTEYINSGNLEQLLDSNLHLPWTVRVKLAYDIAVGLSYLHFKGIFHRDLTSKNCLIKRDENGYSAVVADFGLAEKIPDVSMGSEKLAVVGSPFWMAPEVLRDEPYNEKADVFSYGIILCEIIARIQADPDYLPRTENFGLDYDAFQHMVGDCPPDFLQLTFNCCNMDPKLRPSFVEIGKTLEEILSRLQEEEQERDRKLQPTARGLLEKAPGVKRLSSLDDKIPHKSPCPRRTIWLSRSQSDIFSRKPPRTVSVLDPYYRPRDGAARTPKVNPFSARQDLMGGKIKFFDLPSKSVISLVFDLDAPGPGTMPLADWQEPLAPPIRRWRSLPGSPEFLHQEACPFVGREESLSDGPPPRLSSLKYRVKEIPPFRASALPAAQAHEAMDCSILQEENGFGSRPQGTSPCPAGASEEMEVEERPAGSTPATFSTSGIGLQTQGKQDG

[15] = target: Mitogen-activated protein kinase 14 (Homo sapiens, UniProt Q16539)
Further: in the data inactive means no Kd found up to 30 µM.

Sequence of Protein kinase C theta type (Q04759 whole entry): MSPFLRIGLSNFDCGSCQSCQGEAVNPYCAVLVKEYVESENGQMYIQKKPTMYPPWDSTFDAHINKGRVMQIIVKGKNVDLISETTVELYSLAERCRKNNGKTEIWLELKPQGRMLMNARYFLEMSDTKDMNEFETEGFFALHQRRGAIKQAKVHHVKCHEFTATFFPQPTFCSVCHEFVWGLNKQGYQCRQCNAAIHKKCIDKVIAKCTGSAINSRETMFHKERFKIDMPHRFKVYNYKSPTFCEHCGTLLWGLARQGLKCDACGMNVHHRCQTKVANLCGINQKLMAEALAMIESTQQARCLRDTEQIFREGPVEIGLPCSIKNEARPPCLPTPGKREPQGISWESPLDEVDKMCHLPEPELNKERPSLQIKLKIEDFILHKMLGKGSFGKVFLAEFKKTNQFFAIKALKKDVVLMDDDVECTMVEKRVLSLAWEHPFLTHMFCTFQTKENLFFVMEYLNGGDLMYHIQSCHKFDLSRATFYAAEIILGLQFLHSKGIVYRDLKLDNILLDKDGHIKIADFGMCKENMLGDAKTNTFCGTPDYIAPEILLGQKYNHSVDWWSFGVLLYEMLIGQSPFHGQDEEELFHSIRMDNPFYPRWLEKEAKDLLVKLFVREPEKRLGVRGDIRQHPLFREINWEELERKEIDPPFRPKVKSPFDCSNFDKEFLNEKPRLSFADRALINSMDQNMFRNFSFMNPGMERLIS

| Kd [1] | Kd [2] | Kd [3] | Kd [4] | Kd [5] | Kd [6] | Kd [7] | Kd (Myosin-10) | Kd [8] | Kd [9] | Kd [10] | Kd [11] | Kd [12] | Kd (Focal adhesion kinase 1) | Kd [13] | Kd [14] | Kd [15] | SMILES |
| --- | --- | --- | --- | --- | --- | --- | --- | --- | --- | --- | --- | --- | --- | --- | --- | --- | --- |
| > 30 µM (inactive) | > 30 µM (inactive) | > 30 µM (inactive) | 0.808 µM (active) | > 30 µM (inactive) | > 30 µM (inactive) | > 30 µM (inactive) | > 30 µM (inactive) | > 30 µM (inactive) | > 30 µM (inactive) | > 30 µM (inactive) | > 30 µM (inactive) | > 30 µM (inactive) | > 30 µM (inactive) | > 30 µM (inactive) | – | – | O=C(NOC[C@H](O)CO)c1ccc(F)c(F)c1Nc1ccc(I)cc1F [MIRDAMETINIB] |
| > 30 µM (inactive) | > 30 µM (inactive) | > 30 µM (inactive) | > 30 µM (inactive) | > 30 µM (inactive) | > 30 µM (inactive) | > 30 µM (inactive) | > 30 µM (inactive) | > 30 µM (inactive) | > 30 µM (inactive) | – | > 30 µM (inactive) | > 30 µM (inactive) | 0.191 µM (active) | > 30 µM (inactive) | > 30 µM (inactive) | > 30 µM (inactive) | Cc1cc(Nc2nc(N[C@@H](C)c3ncc(F)cn3)ncc2Cl)n[nH]1 [AZD-1480] |
| > 30 µM (inactive) | – | > 30 µM (inactive) | > 30 µM (inactive) | > 30 µM (inactive) | – | > 30 µM (inactive) | – | – | > 30 µM (inactive) | > 30 µM (inactive) | 0.007 µM (active) | > 30 µM (inactive) | > 30 µM (inactive) | > 30 µM (inactive) | – | > 30 µM (inactive) | CCN1CCN(Cc2ccc(Nc3ncc(F)c(-c4cc(F)c5nc(C)n(C(C)C)c5c4)n3)nc2)CC1 [ABEMACICLIB] |
| > 30 µM (inactive) | > 30 µM (inactive) | > 30 µM (inactive) | > 30 µM (inactive) | > 30 µM (inactive) | 0.271 µM | > 30 µM (inactive) | > 30 µM (inactive) | 2.32 µM (active) | > 30 µM (inactive) | > 30 µM (inactive) | 29.9 µM (active) | 1.4 µM (active) | > 30 µM (inactive) | > 30 µM (inactive) | > 30 µM (inactive) | > 30 µM (inactive) | CCc1cc2c(cc1N1CCC(N3CCOCC3)CC1)C(C)(C)c1[nH]c3cc(C#N)ccc3c1C2=O [ALECTINIB] |
| > 30 µM (inactive) | > 30 µM (inactive) | > 30 µM (inactive) | > 30 µM (inactive) | > 30 µM (inactive) | > 30 µM (inactive) | > 30 µM (inactive) | – | > 30 µM (inactive) | > 30 µM (inactive) | > 30 µM (inactive) | > 30 µM (inactive) | > 30 µM (inactive) | > 30 µM (inactive) | – | > 30 µM (inactive) | > 30 µM (inactive) | COc1cc2ncnc(Nc3ccc(F)c(Cl)c3)c2cc1NC(=O)/C=C/CN1CCCCC1 [DACOMITINIB ANHYDROUS] |
| > 30 µM (inactive) | > 30 µM (inactive) | > 30 µM (inactive) | > 30 µM (inactive) | > 30 µM (inactive) | > 30 µM (inactive) | > 30 µM (inactive) | > 30 µM (inactive) | > 30 µM (inactive) | > 30 µM (inactive) | > 30 µM (inactive) | > 30 µM (inactive) | > 30 µM (inactive) | > 30 µM (inactive) | > 30 µM (inactive) | > 30 µM (inactive) | > 30 µM (inactive) | C#Cc1cccc(Nc2ncnc3cc4c(cc23)OCCOCCOCCO4)c1 [ICOTINIB] |
| > 30 µM (inactive) | > 30 µM (inactive) | > 30 µM (inactive) | > 30 µM (inactive) | > 30 µM (inactive) | > 30 µM (inactive) | > 30 µM (inactive) | > 30 µM (inactive) | > 30 µM (inactive) | > 30 µM (inactive) | > 30 µM (inactive) | > 30 µM (inactive) | > 30 µM (inactive) | > 30 µM (inactive) | > 30 µM (inactive) | > 30 µM (inactive) | > 30 µM (inactive) | COc1ccc2c(OCc3nnc4ccc(-c5ccccc5)nn34)ccnc2c1 [AMG-208] |
| > 30 µM (inactive) | > 30 µM (inactive) | > 30 µM (inactive) | > 30 µM (inactive) | > 30 µM (inactive) | > 30 µM (inactive) | > 30 µM (inactive) | > 30 µM (inactive) | > 30 µM (inactive) | 3.26 µM (active) | > 30 µM (inactive) | > 30 µM (inactive) | > 30 µM (inactive) | > 30 µM (inactive) | > 30 µM (inactive) | – | > 30 µM (inactive) | Cc1ccc(C(=O)Nc2ccc(Oc3cc4cnn(C)c4cc3-c3cn[nH]c3)c(F)c2)c(=O)n1-c1ccc(F)cc1 [MERESTINIB] |

| SMILES | Kd [1] | Kd [2] | Kd [3] | Kd [4] | Kd [5] | Kd [6] | Kd [7] | Kd (Myosin-10) | Kd [8] | Kd [9] | Kd [10] | Kd [11] | Kd [12] | Kd (Focal adhesion kinase 1) | Kd [13] | Kd [14] | Kd [15] |
| --- | --- | --- | --- | --- | --- | --- | --- | --- | --- | --- | --- | --- | --- | --- | --- | --- | --- |
| COCCN1CCN(Cc2ccc(-c3n[nH]c4c3C(=O)c3c(NC(=O)NN5CCOCC5)cccc3-4)cc2)CC1 [RGB-286638] | > 30 µM (inactive) | – | > 30 µM (inactive) | 0.535 µM (active) | > 30 µM (inactive) | > 30 µM (inactive) | > 30 µM (inactive) | > 30 µM (inactive) | 0.018 µM (active) | > 30 µM (inactive) | > 30 µM (inactive) | 0.002 µM | > 30 µM (inactive) | > 30 µM (inactive) | > 30 µM (inactive) | – | > 30 µM (inactive) |
| C=CC(=O)Nc1cc(Nc2nccc(-c3cn(C)c4ccccc34)n2)c(OC)cc1N(C)CCN(C)C [OSIMERTINIB] | > 30 µM (inactive) | > 30 µM (inactive) | > 30 µM (inactive) | > 30 µM (inactive) | > 30 µM (inactive) | > 30 µM (inactive) | > 30 µM (inactive) | > 30 µM (inactive) | > 30 µM (inactive) | > 30 µM (inactive) | – | > 30 µM (inactive) | > 30 µM (inactive) | > 30 µM (inactive) | – | > 30 µM (inactive) | > 30 µM (inactive) |
